# Measurements as given in patent publication US11261201B2 (priority 2018, dated 2022).
# Counter-ions that a name gives are not always drawn. Like-named read-outs stand apart in the source and are kept apart here.
# What was measured:
# E. coli = experiment: Gram negative MIC protocol (OD600, LB, 24 h); conditions: for MIC: Escherichia coli; for MIC E. coli delta-TolC LB Media / MIC WT E. coli LB Media: OD600
# Protocol: (§1) Overnight bacterial cultures were grown in LB with no added antibiotics at 37° C. with shaking. A 1:1000 dilution of these cultures into LB was exposed to concentration gradients of compounds in 96-well plates (100 μL per well assay volume). Resulting plates were incubated at 37° C. for 24 h without shaking, and OD600 was measured at the end of the incubation. MICs were determined as the lowest concentrations at which OD600 remained at baseline.
# H37RvMA = experiment: Tuberculosis Alamar Blue/Resazurin assay (MIC); format: cell-based; conditions: read-out: WT H37Rv MTB Activity
# A. baumannii = experiment: Gram negative MIC protocol (OD600, LB, 24 h); conditions: for MIC: Acinetobacter baumannii; for MIC A. baumannii LB Media: OD600
# Protocol: as §1
# [1] = read-out: MIC E. coli delta-TolC LB Media, E. coli delta-TolC strain, LB media, 24 h, OD600
# [2] = read-out: MIC WT E. coli LB Media, wild-type E. coli, LB media, 24 h, OD600
# [3] = Mycobacterium tuberculosis, H37RV
# [4] = read-out: MIC A. baumannii LB Media, A. baumannii, LB media, 24 h, OD600
# [5] = read-out: MIC E. coli delta-TolC LB Media, E. coli delta-TolC, LB media, OD600
# [6] = read-out: MIC WT E. coli LB Media, WT E. coli, LB media, OD600
# [7] = Mycobacterium tuberculosis, H37RV, WT H37Rv MTB
# [8] = read-out: MIC A. baumannii LB Media
Compound,MIC (H37RvMA; [3]),MIC (A. baumannii; [4]),MIC (E. coli; [5]),MIC (E. coli; [6]),MIC (H37RvMA; [7]),other results
"Fc1ccc(C2CC2NCc2ccccc2)cc1F (stereo in doubt) [B211, (1S,2R)-N-benzyl-2-(3,4-difluorophenyl)cyclopropanamine hydrochloride]",> 150 µM,300 µM,,,,MIC (E. coli; [1]): 300 µM; MIC (E. coli; [2]): > 300 µM
CC(C)CCNCc1ccccc1 [B2],,> 150 µM,> 150 µM,> 150 µM,> 150 µM,
C1=C(CCNCc2ccncc2)CCCC1 [B3],,> 150 µM,> 150 µM,> 150 µM,> 150 µM,
C1=C(CCNCc2cccnc2)CCCC1 [B4],> 150 µM,> 150 µM,> 150 µM,> 150 µM,,
CC(CNCc1ccccc1)C1CCCC1 (centres unmarked) [B5],,> 150 µM,> 150 µM,> 150 µM,> 150 µM,
CCCCCCNCc1ccccc1 [B6],,> 150 µM,> 150 µM,> 150 µM,> 150 µM,
c1ccc(CNC2CCCCC2)cc1 [B7],,> 150 µM,> 150 µM,> 150 µM,> 150 µM,
CC(Cc1ccccc1)NCc1ccccc1 (centres unmarked) [B8],> 150 µM,,> 150 µM,> 150 µM,,MIC (A. baumannii; [8]): > 150 µM
c1ccc(CNCC2CCCCC2)cc1 [B9],,> 150 µM,> 150 µM,> 150 µM,> 150 µM,
"Cc1ccc(CNCCC2=CCCCC2)cc1 [B10, 2-(cyclohex-1-en-1-yl)-N-(4-methylbenzyl)ethan-1-amine]",,> 150 µM,> 150 µM,> 150 µM,> 150 µM,
"Cc1cccc(CNCCC2=CCCCC2)c1 [B11, 2-(cyclohex-1-en-1-yl)-N-(3-methylbenzyl)ethan-1-amine]",,> 150 µM,> 150 µM,> 150 µM,> 150 µM,
COc1ccc(CNCCC2=CCCCC2)cc1 [B12],,> 150 µM,> 150 µM,> 150 µM,> 150 µM,
"Cc1ccccc1CNCCC1=CCCCC1 [B13, 2-(cyclohex-1-en-1-yl)-N-(2-methylbenzyl)ethan-1-amine]",,150 µM,55 µM,90 µM,> 150 µM,
Fc1ccc(CNCCC2=CCCCC2)cc1 [B14],,> 150 µM,> 150 µM,> 150 µM,> 150 µM,
C1=C(CCNCc2ccncc2)CCCC1 [B15],,,,,,MIC E. coli delta-TolC LB Media (E. coli): >150 µM; MIC WT E. coli LB Media (E. coli): >150 µM; MIC (H37RvMA; WT H37Rv MTB): >150 µM; MIC A. baumannii LB Media (A. baumannii): >150 µM
CCCC(C)NCc1ccccc1 (centres unmarked) [B16],,> 150 µM,> 150 µM,> 150 µM,> 150 µM,
Cl.c1ccc(CNCC2CCCCC2)cc1 [B17],,,,,,MIC E. coli delta-TolC LB Media (E. coli): >150 µM; MIC WT E. coli LB Media (E. coli): >150 µM; MIC (H37RvMA; WT H37Rv MTB): >150 µM; MIC A. baumannii LB Media (A. baumannii): >150 µM
c1ccc(CNCC2(c3ccc4c(c3)OCO4)CC2)cc1 [B18],> 150 µM,> 150 µM,> 150 µM,> 150 µM,,
OC(CNCc1ccccc1)c1cccc2ccccc12 (centres unmarked) [B19],,,,,,MIC E. coli delta-TolC LB Media (E. coli): >150 µM; MIC WT E. coli LB Media (E. coli): >150 µM; MIC (H37RvMA; WT H37Rv MTB): 150 µM; MIC A. baumannii LB Media (A. baumannii): >150 µM
CC(CC1CCCO1)NCc1ccccc1 (centres unmarked) [B20],,> 150 µM,> 150 µM,> 150 µM,> 150 µM,
Fc1cc(CCNCc2ccccc2)c2c(c1)COCO2 [B21],,> 150 µM,> 150 µM,> 150 µM,> 150 µM,

Compound,MIC (H37RvMA; [3]),MIC (A. baumannii; [4]),MIC (E. coli; [5]),MIC (E. coli; [6]),MIC (H37RvMA; [7]),other results
c1ccc(CNCC2Cc3ccccc32)cc1 (centres unmarked) [B22],,> 150 µM,> 150 µM,> 150 µM,> 150 µM,
c1ccc(CNCC2CCOc3ccccc32)cc1 (centres unmarked) [B23],,> 150 µM,> 150 µM,> 150 µM,> 150 µM,
c1ccc(CNCCc2ccc3c(c2)CCO3)cc1 [B24],> 150 µM,,> 150 µM,> 150 µM,,MIC (A. baumannii; [8]): > 150 µM
c1ccc(CNCCC2CCOCC2)cc1 [B25],,> 150 µM,> 150 µM,> 150 µM,> 150 µM,
Cc1noc(C)c1CC(C)NCc1ccccc1 (centres unmarked) [B26],> 150 µM,> 150 µM,> 150 µM,> 150 µM,,
C1=C(CCNCc2ccccc2)c2ccccc2C1 [B27],,> 150 µM,> 150 µM,> 150 µM,91 µM,
COc1ccc(C(C)C(C)NCc2ccccc2)cc1 (centres unmarked) [B28],> 150 µM,> 150 µM,> 150 µM,> 150 µM,,
CC(CC1CCOCC1)NCc1ccccc1 (centres unmarked) [B29],,> 150 µM,> 150 µM,> 150 µM,> 150 µM,
c1ccc(CNCCC2CCC2)cc1 [B30],,> 150 µM,> 150 µM,> 150 µM,> 150 µM,
CC(CC1CCOC1)NCc1ccccc1 (centres unmarked) [B31],,> 150 µM,> 150 µM,> 150 µM,> 150 µM,
c1ccc(CNC2(C3CC3)CC2)cc1 [B32],,> 150 µM,> 150 µM,> 150 µM,> 150 µM,
CC(CC1CCC1)NCc1ccccc1 (centres unmarked) [B33],> 150 µM,,> 150 µM,> 150 µM,,MIC (A. baumannii; [8]): > 150 µM
CC(CC1CC1)NCc1ccccc1 (centres unmarked) [B34],,> 150 µM,> 150 µM,> 150 µM,> 150 µM,
CC(NCc1ccccc1)C1CCCC1 (centres unmarked) [B35],,> 150 µM,> 150 µM,> 150 µM,> 150 µM,
CC(NCCC1=CCCCC1)c1ccccc1 (centres unmarked) [B36],,> 150 µM,> 150 µM,> 150 µM,> 150 µM,
OC1(CNCc2ccccc2)C2C3CC4C5C3CC2C5C41 (centres unmarked) [B37],,> 150 µM,> 150 µM,> 150 µM,150 µM,
CC(CC1CCCC1)NCc1ccccc1 (centres unmarked) [B38],> 150 µM,,90 µM,91 µM,,MIC (A. baumannii; [8]): 150 µM
C1=C(CCNCc2ccccc2)CCC1 [B39],,> 150 µM,> 150 µM,> 150 µM,> 150 µM,
c1ccc(CNCCC2CCOC2)cc1 (centres unmarked) [B40],,> 150 µM,> 150 µM,> 150 µM,> 150 µM,
CC(Cc1cnn(C)c1)NCc1ccccc1 (centres unmarked) [B41],> 150 µM,> 150 µM,> 150 µM,> 150 µM,,
c1ccc(CNCCc2cccc3cccnc23)cc1 [B42],,> 150 µM,> 150 µM,> 150 µM,> 150 µM,

Compound,MIC (H37RvMA; [3]),MIC (A. baumannii; [4]),MIC (E. coli; [5]),MIC (E. coli; [6]),MIC (H37RvMA; [7]),other results
c1ccc(CNCC2CC3CCC2C3)cc1 (centres unmarked) [B43],,> 150 µM,> 150 µM,> 150 µM,> 150 µM,
COc1ccc(C(C)CNCc2ccccc2)cc1OC (centres unmarked) [B44],> 150 µM,> 150 µM,> 150 µM,> 150 µM,,
c1ccc(CNCC2C3CCc4ccccc4C32)cc1 (centres unmarked) [B45],,> 150 µM,> 150 µM,> 150 µM,91 µM,
c1ccc(CNCCC2COc3ccccc3O2)cc1 (centres unmarked) [B46],,> 150 µM,> 150 µM,> 150 µM,> 150 µM,
CC(Cc1ccn(C(C)C)n1)NCc1ccccc1 (centres unmarked) [B47],> 150 µM,> 150 µM,> 150 µM,> 150 µM,,
C1=Nc2c(cccc2CCNCc2ccccc2)C1 [B48],150 µM,,> 150 µM,> 150 µM,,MIC (A. baumannii; [8]): 150 µM
c1ccc(CNC2(Cc3ccccc3)CC2)cc1 [B49],,> 150 µM,> 150 µM,> 150 µM,> 150 µM,
COc1ccc(CC(C)(C)NCc2ccccc2)cc1 [B50],> 150 µM,,> 150 µM,> 150 µM,,MIC (A. baumannii; [8]): > 150 µM
CC(C)=CCCNCc1ccccc1 [B51],,> 150 µM,> 150 µM,> 150 µM,> 150 µM,
COC1(CC(C)NCc2ccccc2)CCC1 (centres unmarked) [B52],,> 150 µM,> 150 µM,> 150 µM,> 150 µM,
C[C@H](NCc1ccccc1)[C@H](O)c1ccc2c(c1)OCO2 [B53],> 150 µM,> 150 µM,> 150 µM,> 150 µM,,
COc1ccc(C(C)C(C)NCc2ccccc2)cc1OC (centres unmarked) [B54],> 150 µM,> 150 µM,> 150 µM,> 150 µM,,
Clc1cc(CCNCc2ccccc2)cc2c1OCCO2 [B55],150 µM,,> 150 µM,> 150 µM,,MIC (A. baumannii; [8]): > 150 µM
c1ccc(CNCCc2ccc3[nH]ccc3c2)cc1 [B56],> 150 µM,,> 150 µM,> 150 µM,,MIC (A. baumannii; [8]): > 150 µM
C1=Nc2cccc(CCNCc3ccccc3)c2C1 [B57],> 150 µM,,> 150 µM,> 150 µM,,MIC (A. baumannii; [8]): > 150 µM
c1ccc(CNCCc2ccc3cn[nH]c3c2)cc1 [B58],,> 150 µM,> 150 µM,> 150 µM,> 150 µM,
c1ccc(CNCC2C3CC4CC(C3)CC2C4)cc1 (centres unmarked) [B59],,> 150 µM,> 150 µM,> 150 µM,33 µM,
c1ccc(CNCCC2CCSCC2)cc1 [B332],,> 150 µM,,,,MIC (E. coli; [1]): > 150 µM; MIC (E. coli; [2]): > 150 µM
O=C1Cc2ccccc2CN1CCC1CCCCC1 [B379],,> 150 µM,,,,MIC (E. coli; [1]): 150 µM; MIC (E. coli; [2]): > 150 µM
